Reference: US10287617B2, “Methods for in vitro—in vivo efficacy determination” (COLORADO STATE UNIVERSITY RESEARCH FOUNDATION, priority 2014, dated 2019)
In brackets after ≈: the same amount, converted by molar mass. Entries after “also recorded” stand apart in the source; their conditions may differ. Where two headings read alike, the source gives them in different places. Marks after values point to notes of the source that are not given here.

How the values were obtained:
[1] = system: Mycobacteria tuberculosis; assay: MIC and drug response curve type (Tables A and B); assay type: cell-based, Mycobacterium tuberculosis; conditions: for Curve: drug response curve type; for MIC: in µg/mL
Description: A drug concentration response curve can be generated by graphing the log10 drug concentrations (μg/mL) against the difference in growth between the drug-treated wells and control wells. See FIG. 3C, and FIG. 5 (entries for SB-P23D8 and SB-P26D9). A NREBA is indicative of bacteriostatic activity above the MIC.
(§1) Further analysis using the methods described herein was performed on the compounds found in Tables A and B (bold font compounds are shown in FIG. 11) resulting in the data found therein.
MIC values were determined for the benzimidazoles using a modified 96-well microplate Alamar Blue (resazurin) assay (MABA) (see Kumar et al., J. Med. Chem. 2011; 54:374-381; Collins and Franzblau, Antimicrob. Agents Chemother. 1997; 41:1004-1009). Dose response curves were generated from the MABA assay for compounds by graphing the log10 drug concentrations against the difference in growth between the drug-treated wells and control wells using GraphPad Prism Version 5.0d for Mac OS X (GraphPad Software, San Diego Calif., USA, www.graphpad.com). For time dose studies, bacterial growth in the presence of compound was monitored by the O.D. 600 nm. […] The values were plotted against time using GraphPad Prism Version 5.0d for Mac OS X (GraphPad Software, San Diego Calif., USA, www.graphpad.com).

M. tuberculosis H37Rv [2] = assay: MIC / dose response by modified microplate Alamar Blue assay (MABA); assay type: cell-based, Mycobacterium tuberculosis; conditions: for drug concentration response curve (kill curve) type: FIG. 3; for MIC range: H37Rv and Erdman strains
M. tuberculosis = assay: Benzimidazoles activity tested in animals (animal models of infection, Table A); assay type: in vivo, mouse; conditions: for Efficacy Lung / Efficacy Spleen: Table A
Description: as §1
Compound efficacy was assessed in two murine models of infection based on the short term model described previously (Lenaerts et al., Antimicrob. Agents Chemother. 2003; 47:783-785). All aerosol infections were performed using a Middlebrook aerosol generation devise (Glas-Col, Terre Haute, Ind.).

M. tuberculosis H37Rv [3] = assay: Growth inhibition / time dose curves (OD600 and CFU); assay type: cell-based, Mycobacterium tuberculosis; conditions: for concentrations at which bacterial growth was inhibited: O.D. 600 nm growth curves, 5 days
[4] = system: non-replicating M. tuberculosis H37Rv; assay: Low oxygen study, non-replicating bacilli; assay type: cell-based, Mycobacterium tuberculosis; conditions: for Log10 (CFU+/−SD): 96 h post-treatment; for % Growth Reduction: benzimidazoles at 4 μg/mL; for Log10 (CFU) Reduction: vs control
Description: The low oxygen studies were performed similar to those described previously (Lenaerts et al., Antimicrob. Agents Chemother. 2005; 49:2294-2301). Briefly, M. tuberculosis H37Rv were diluted to an O.D. 600 nm of 0.003 in 7H9 media containing Methylene Blue (1.5 μg/mL) and were grown in 16×125 mm Hungate tubes with rubber septa (VWR cat#89167-170). The tubes, with 11 mL of the diluted cultures were incubated at 37° C. under agitation (150 rpm). […] One week after the reduction of methylene blue, approximately 28 days from the start, drug treatment was initiated with the test and control drugs. Prior to treatment, an aliquot was removed and plated for a CFU count to serve as a control. Isoniazid and metronidazole were used in the studies as comparative controls.
Recovery of aliquots for plating and the addition of drugs were conducted through septa using syringes to maintain the low-oxygen conditions. Ninety-six hours post-treatment, 1 mL of the culture was removed from the oxygen depleted cultures, the aliquot was serial diluted and the dilutions were plated. Log10 CFUs were calculated for the different treatments and concentrations. Percentage growth reduction from the controls was calculated and reported.

M. tuberculosis H37Rv [5] = assay type: cell-based; conditions: for MIC Alone: drug alone
[6] = Oxidative metabolic lability in human liver microsomes; conditions: 5 μM, 1 mg/mL microsomal protein, 20 min
Description: (§2) Microsomal fractions were prepared in the Drug Disposition Domain at DSAR Montpellier (371 rue du Pr. J. Blayac, 34184 Montpellier Cedex 04, France). […] The flavin-containing monooxygenases (FMO)-dependent reactions were run in the presence of bovine serum albumin (BSA, 0.1%) for the duration of 0 and 20 min (with or without microsomal proteins and/or cofactors). […] Following protein precipitation with acetonitrile and their removal by centrifugation, supernatant fluids were analyzed by LC/MS-MS.
(§3) Thermo Finnigan TSQ Quantum Ultra instrument, ESI positive ion ionization mode. Each compound is studied in duplicates. Results are expressed in percentage of lability (or total metabolism). Total metabolism=[1−(UC_Peak Area+Cofactor at T20)/(UC_Peak Area Reference at T0)]×100
(§4) The reactions were prepared as described and were run in the presence of bovine scrum albumin (BSA, 0.1%) for the duration of 0 and 20 min (with or without microsomal proteins and/or cofactors). Enzyme activity was stopped, the protein was precipitated and removed by centrifugation. The supernatant fluids were analyzed by LC/MS-MS. […] A Thermo Finnigan TSQ Quantum Ultra instrument, ESI positive ion ionization mode was used for MS/MS. Each compound was studied in duplicates. Results are expressed in percentage of lability (or total metabolism) using the following formula: Total metabolism=[1−(UC_Peak Area+Cofactor at T20)/(UC_Peak Area Reference at T0)]×100 where UC=Unchanged Compound; “Reference” sample was NADPH for liver microsomal preparation.

M. tuberculosis TN587 = assay: microbe, parasite or virus in culture; assay type: cell-based, Mycobacterium tuberculosis
[7] = Oxidative metabolic lability in mouse liver microsomes; conditions: 5 μM, 1 mg/mL microsomal protein, 20 min
Description: as §2, §3, §4

M. tuberculosis NHN20 = assay: microbe, parasite or virus in culture; assay type: cell-based, Mycobacterium tuberculosis
M. tuberculosis W210 = assay: microbe, parasite or virus in culture; assay type: cell-based, Mycobacterium tuberculosis
Vero cells = assay: Cytotoxicity assay (resazurin, 72 h); assay type: cell-based
Description: The cytotoxicity assay was performed as described previously^16. Briefly compounds were serially diluted in 96 well plates.

M. tuberculosis Erdman = assay type: in vivo; conditions: 50 mg/kg b.i.d. (Inh q.d.); for Log10CFU Lungs / Log10CFU Spleen: day 15
M. tuberculosis NHN382 = assay: microbe, parasite or virus in culture; assay type: cell-based, Mycobacterium tuberculosis

CCc1ccc(C(=O)Nc2cc3nc(C4CCCCC4)[nH]c3cc2N(CC)CC)cc1 [SB-P1G-A17]
Curve ([1]; Table B): Zonal | MIC ([1]; Table B): 1.56

CCN(CC)c1cc2[nH]c(C3CCCCC3)nc2cc1NC(=O)c1ccc(N(C)C)cc1 [SB-P1G-A11]
Curve ([1]; Table B): Zonal | MIC ([1]; Table B): 12.5

CCN(CC)c1cc2[nH]c(C3CCCCC3)nc2cc1NC(=O)c1ccc(OC)cc1 [SB-P1G10]
drug concentration response curve (kill curve) type (M. tuberculosis H37Rv [2]): narrow range of concentrations of effective bactericidal activity (NREBA) kill curve | MIC range (M. tuberculosis H37Rv [2]): 3 to 6.25 µg/mL | concentration range of bactericidal activity (M. tuberculosis H37Rv [2]; drug concentration response curve): 0.5-4 fold of MIC | Curve ([1]; Table A): Zonal | MIC ([1]; Table A): 3.13-6.25 | Efficacy Lung (M. tuberculosis): No | Efficacy Spleen (M. tuberculosis): No | bacterial load in the lungs or spleen (M. tuberculosis; any animal model of infection conducted): never reduced the bacterial load | concentrations at which bacterial growth was inhibited (M. tuberculosis H37Rv [3]): none of the concentrations tested

Cc1ncc([N+](=O)[O-])n1CCO [Metronidazole, reference compound]
Log10 (CFU+/−SD) [4]: 4.83 ± 0.06 | % Growth Reduction [4]: 70% | Log10 (CFU) Reduction [4]: 0.52

CCCOCC(=O)Nc1cc2nc(C3CCCCC3)[nH]c2cc1N1CCCC1 [SB-P6B-A3]
Curve ([1]; Table B): Zonal | MIC ([1]; Table B): 12.5

CC(C)(C)c1ccc(C(=O)Nc2cc3nc(C4CCCCC4)[nH]c3cc2SCc2ccccc2)cc1 [SB-P26H8]
Curve ([1]; Table B): Zonal | MIC ([1]; Table B): 25

Cc1ccc(C(=O)Nc2cc3nc(Cc4ccccc4)[nH]c3cc2N(C)C)cc1 [SB-P27A9]
Curve ([1]; Table B): Zonal | MIC ([1]; Table B): 12.5

CC(C)(C)c1ccc(C(=O)Nc2cc3nc(C4CCCCC4)[nH]c3cc2Sc2ccccc2)cc1 [SB-P26F8]
Curve ([1]; Table B): Zonal | MIC ([1]; Table B): 25

CCN(CC)c1cc2[nH]c(C3CCCCC3)nc2cc1NC(=O)c1ccc(OC)cc1.O=C(O)/C=C/C(=O)O [SB-P1G10-FUM]
Curve ([1]; Table B): Zonal | MIC ([1]; Table B): 6.25

CCN(CC)c1cc2[nH]c(C3CCCCC3)nc2cc1NC(=O)c1cnccn1 [SB-P1G-A12]
Curve ([1]; Table B): Zonal | MIC ([1]; Table B): 12.5

CN(C)c1cc2[nH]c(C3CCCCC3)nc2cc1NC(=O)OCc1ccccc1 [SB-P17G-C4]
Curve ([1]; Table B): Zonal | MIC ([1]; Table B): 12.5

COc1ccc(C(=O)Nc2cc3nc(C4CCCCC4)[nH]c3cc2N(C)C)cc1 [SB-P17G-A16]
Curve ([1]; Table A): Sigmoid | MIC ([1]; Table A): .31 | Efficacy Lung (M. tuberculosis): Yes | Efficacy Spleen (M. tuberculosis): Yes

CCCN(CCC)c1cc2[nH]c(C3CCCCC3)nc2cc1NC(=O)OCCOCC [SB-oli-C8]
Curve ([1]; Table B): Zonal | MIC ([1]; Table B): 6.25

CCC(CC)c1nc2cc(NC(=O)c3ccccc3OC)c(N(C)C)cc2[nH]1 [SB-P27C7]
Curve ([1]; Table B): Zonal | MIC ([1]; Table B): 6.25

COc1ccc(C(=O)Nc2cc3nc(C4CCCCC4)[nH]c3cc2Oc2ccc(F)cc2)cc1 [SB-P23D8]
Curve ([1]; Table B): Zonal | MIC ([1]; Table B): 3.13

C=Cc1cccc(C(=O)Nc2cc3nc(C4CCCCC4)[nH]c3cc2N(CC)CC)c1 [SB-P1G-A21]
Curve ([1]; Table B): Zonal | MIC ([1]; Table B): 25

O=C(Nc1cc2nc(C3CCCCC3)[nH]c2cc1N1CCCC1)OCc1ccccc1 [SBP8B4]
Curve ([1]; Table A): Sigmoid | MIC ([1]; Table A): 3.13 | Efficacy Lung (M. tuberculosis): None | Efficacy Spleen (M. tuberculosis): None

CCCCOC(=O)Nc1cc2nc(C3CCCCC3)[nH]c2cc1N1CCCC1 [SB-P8B2]
drug concentration response curve (kill curve) type (M. tuberculosis H37Rv [2]): sigmoidal kill curves | MIC range (M. tuberculosis H37Rv [2]): 0.39 to 0.78 µg/mL | Curve ([1]; Table A): Sigmoid | MIC ([1]; Table A): .625 | Log10 (CFU+/−SD) [4]: 4.96 ± 0.18 | % Growth Reduction [4]: 59% | Log10 (CFU) Reduction [4]: 0.39 | MIC In Combination (M. tuberculosis H37Rv [5]; SB-P8B2 with rifampicin): 0.1 × MIC | enhancement of activity in the presence of the other drug (M. tuberculosis H37Rv [5]; SB-P8B2 with rifampicin): 8 fold | ΣFIC (M. tuberculosis H37Rv [5]; SB-P8B2 with rifampicin): 0.63 | MIC Alone (M. tuberculosis H37Rv [5]): 1 × MIC | Efficacy Lung (M. tuberculosis): Yes (.243) | Efficacy Spleen (M. tuberculosis): No | concentrations at which bacterial growth was inhibited (M. tuberculosis H37Rv [3]): > 0.31 µg/mL

Cc1ccc(C(=O)Nc2cc3nc(C4CCCCC4)[nH]c3cc2Sc2ccccc2)cc1 [SB-P26F9]
Curve ([1]; Table B): Zonal | MIC ([1]; Table B): 6.25

CN(C)c1cc2[nH]c(C3CCCCC3)nc2cc1NC(=O)c1ccc(OC(F)(F)F)c(F)c1F [SB-P17G-A33]
Liver Microsome Lability Human [6]: 5% | MIC (M. tuberculosis TN587): 0.31 ± 0 µg/mL (≈ 0.643 µM) | Liver Microsome Lability Mouse [7]: 17% | MIC (M. tuberculosis H37Rv [2]; H37Rv): 0.39 ± 0.16 µg/mL (≈ 0.808 µM) | MIC (M. tuberculosis NHN20): 0.39 ± 0.33 µg/mL (≈ 0.808 µM) | Curve ([1]; Table A): Sigmoid | MIC ([1]; Table A): .5-.625 | MIC (M. tuberculosis W210): 0.47 ± 0.22 µg/mL (≈ 0.974 µM) | Vero Cells (cytotoxicity IC50) (Vero cells; 72 h): >200 µg/mL | cytotoxicity in Vero cells (Vero cells; at 200 μg/mL): not cytotoxic; also recorded: non-toxic | Efficacy Lung (M. tuberculosis): Yes | Efficacy Spleen (M. tuberculosis): Yes | Δ Lungs (difference between means of Test and Control Groups) (M. tuberculosis Erdman; IP): −2.10** Log10 CFU | Δ Spleen (difference between means of Test and Control Groups) (M. tuberculosis Erdman; IP): −3.36*** Log10 CFU | Log10CFU Lungs (M. tuberculosis Erdman; IP): 4.59 ± 0.71 Log10 CFU | Log10CFU Spleen (M. tuberculosis Erdman; IP): 1.60 ± .0 Log10 CFU | Δ Lungs (difference between means of Test and Control Groups) (M. tuberculosis Erdman; PO): −1.72*** Log10 CFU | Δ Spleen (difference between means of Test and Control Groups) (M. tuberculosis Erdman; PO): −2.49*** Log10 CFU | Log10CFU Lungs (M. tuberculosis Erdman; PO): 4.58 ± 0.21 Log10 CFU | Log10CFU Spleen (M. tuberculosis Erdman; PO): 1.40 ± 1.24 Log10 CFU | reduction in number of viable bacteria (M. tuberculosis H37Rv [3]; 1×MIC, day 2): 0.8-1.7 Log10 CFU | MIC (M. tuberculosis NHN382): 0.37 ± 0.24 µg/mL (≈ 0.767 µM)

CO[C@H]1/C=C/O[C@@]2(C)Oc3c(C)c(O)c4c(O)c(c(/C=N/N5CCN(C)CC5)c(O)c4c3C2=O)NC(=O)/C(C)=C\C=C\[C@H](C)[C@H](O)[C@@H](C)[C@@H](O)[C@@H](C)[C@H](OC(C)=O)[C@@H]1C [Rifampicin, reference compound]
MIC In Combination (M. tuberculosis H37Rv [5]; SB-P8B2 with rifampicin): 0.5 × MIC | MIC Alone (M. tuberculosis H37Rv [5]): 1 × MIC

Cc1ccc(C(=O)Nc2cc3nc(C4CCCCC4)[nH]c3cc2Oc2ccc(F)cc2)cc1 [SB-P26D9]
Curve ([1]; Table B): Zonal | MIC ([1]; Table B): 1.56
